Test results taken from ChEMBL document CHEMBL1212811, “Chemical phylogenetics of histone deacetylases” (Nat Chem Biol, 2010).
Structures can show the parent of a compound that is named as a salt. The source made the active and inactive calls. The rule behind the calls is not given here. Peptide text beside a SMILES is read from it. * marks the point of attachment. AMC = Cc1cc(=O)oc2cc(N*)ccc12; Tfa = O=C(C(F)(F)F)*

Key:
[1] = molecular target: T1, Protein deacetylase HDAC6 (Homo sapiens) (UniProt Q9UBN7); assay: Inhibition of HDAC6 in human Jurkat cells assessed as hyperacetylation of alpha-tubulin after 24 hrs by immunoblot method; assay type: cell-based
T1 sequence (whole entry): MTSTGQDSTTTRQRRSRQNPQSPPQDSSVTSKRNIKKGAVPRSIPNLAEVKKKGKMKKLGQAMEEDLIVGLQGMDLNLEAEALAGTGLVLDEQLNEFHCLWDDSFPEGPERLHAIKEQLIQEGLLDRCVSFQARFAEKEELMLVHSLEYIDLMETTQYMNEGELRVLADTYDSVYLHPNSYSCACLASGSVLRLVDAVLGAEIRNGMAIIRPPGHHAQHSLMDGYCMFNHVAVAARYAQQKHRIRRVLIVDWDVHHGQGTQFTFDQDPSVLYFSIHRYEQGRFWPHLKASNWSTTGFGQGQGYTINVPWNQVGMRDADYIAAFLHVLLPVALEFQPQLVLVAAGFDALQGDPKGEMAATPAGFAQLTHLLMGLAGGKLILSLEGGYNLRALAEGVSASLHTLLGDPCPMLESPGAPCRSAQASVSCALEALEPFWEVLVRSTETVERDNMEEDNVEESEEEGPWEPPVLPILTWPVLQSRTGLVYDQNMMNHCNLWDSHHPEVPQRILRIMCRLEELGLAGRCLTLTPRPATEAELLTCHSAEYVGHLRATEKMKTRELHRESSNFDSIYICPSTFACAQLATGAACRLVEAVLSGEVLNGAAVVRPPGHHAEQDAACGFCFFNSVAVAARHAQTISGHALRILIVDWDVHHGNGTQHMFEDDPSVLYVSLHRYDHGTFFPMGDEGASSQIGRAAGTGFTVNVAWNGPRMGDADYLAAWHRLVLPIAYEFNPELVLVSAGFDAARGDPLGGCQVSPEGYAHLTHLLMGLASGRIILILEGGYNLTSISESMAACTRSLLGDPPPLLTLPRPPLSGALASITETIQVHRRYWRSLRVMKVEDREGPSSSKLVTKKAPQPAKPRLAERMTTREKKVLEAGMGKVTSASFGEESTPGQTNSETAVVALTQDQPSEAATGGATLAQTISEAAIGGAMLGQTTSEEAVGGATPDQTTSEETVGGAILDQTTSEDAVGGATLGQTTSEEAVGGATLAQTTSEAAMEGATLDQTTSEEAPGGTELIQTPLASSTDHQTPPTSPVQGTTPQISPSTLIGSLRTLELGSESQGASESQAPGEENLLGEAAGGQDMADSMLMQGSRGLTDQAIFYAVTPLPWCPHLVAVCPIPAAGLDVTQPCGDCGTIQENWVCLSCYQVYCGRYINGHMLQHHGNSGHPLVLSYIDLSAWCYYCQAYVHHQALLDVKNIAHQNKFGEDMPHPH

[2] = molecular target: T2, Histone deacetylase 7 (Homo sapiens) (UniProt Q8WUI4); assay: Activity of HDAC7 at 10 uM
T2 sequence (whole entry): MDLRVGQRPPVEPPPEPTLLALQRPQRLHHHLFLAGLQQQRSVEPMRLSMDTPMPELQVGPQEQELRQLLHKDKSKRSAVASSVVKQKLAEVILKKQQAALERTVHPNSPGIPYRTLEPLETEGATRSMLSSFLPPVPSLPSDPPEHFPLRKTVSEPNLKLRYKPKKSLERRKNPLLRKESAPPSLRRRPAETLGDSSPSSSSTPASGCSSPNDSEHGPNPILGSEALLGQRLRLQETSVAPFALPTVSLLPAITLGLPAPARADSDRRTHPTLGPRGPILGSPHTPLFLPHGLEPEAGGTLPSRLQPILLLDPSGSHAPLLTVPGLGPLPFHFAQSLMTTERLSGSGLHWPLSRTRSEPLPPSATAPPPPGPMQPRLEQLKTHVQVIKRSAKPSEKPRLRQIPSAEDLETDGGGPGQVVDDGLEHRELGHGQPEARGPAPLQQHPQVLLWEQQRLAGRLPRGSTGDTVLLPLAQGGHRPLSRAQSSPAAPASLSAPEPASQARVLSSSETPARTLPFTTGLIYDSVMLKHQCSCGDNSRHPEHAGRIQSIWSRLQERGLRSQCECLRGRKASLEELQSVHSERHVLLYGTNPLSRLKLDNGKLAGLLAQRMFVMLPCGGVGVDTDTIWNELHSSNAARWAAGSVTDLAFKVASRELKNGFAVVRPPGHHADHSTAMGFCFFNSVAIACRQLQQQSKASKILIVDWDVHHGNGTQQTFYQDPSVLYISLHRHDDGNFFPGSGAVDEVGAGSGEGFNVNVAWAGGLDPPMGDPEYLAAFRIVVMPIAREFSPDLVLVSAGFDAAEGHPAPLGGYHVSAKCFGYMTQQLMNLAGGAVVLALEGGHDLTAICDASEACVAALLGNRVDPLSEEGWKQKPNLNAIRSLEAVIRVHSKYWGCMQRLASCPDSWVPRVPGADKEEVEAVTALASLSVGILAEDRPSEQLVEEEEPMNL

[3] = molecular target: Histone deacetylase 9 (Homo sapiens) (UniProt Q9UKV0); assay: Activity of HDAC9 at 10 uM
Sequence of Histone deacetylase 9 (Homo sapiens) (Q9UKV0 whole entry): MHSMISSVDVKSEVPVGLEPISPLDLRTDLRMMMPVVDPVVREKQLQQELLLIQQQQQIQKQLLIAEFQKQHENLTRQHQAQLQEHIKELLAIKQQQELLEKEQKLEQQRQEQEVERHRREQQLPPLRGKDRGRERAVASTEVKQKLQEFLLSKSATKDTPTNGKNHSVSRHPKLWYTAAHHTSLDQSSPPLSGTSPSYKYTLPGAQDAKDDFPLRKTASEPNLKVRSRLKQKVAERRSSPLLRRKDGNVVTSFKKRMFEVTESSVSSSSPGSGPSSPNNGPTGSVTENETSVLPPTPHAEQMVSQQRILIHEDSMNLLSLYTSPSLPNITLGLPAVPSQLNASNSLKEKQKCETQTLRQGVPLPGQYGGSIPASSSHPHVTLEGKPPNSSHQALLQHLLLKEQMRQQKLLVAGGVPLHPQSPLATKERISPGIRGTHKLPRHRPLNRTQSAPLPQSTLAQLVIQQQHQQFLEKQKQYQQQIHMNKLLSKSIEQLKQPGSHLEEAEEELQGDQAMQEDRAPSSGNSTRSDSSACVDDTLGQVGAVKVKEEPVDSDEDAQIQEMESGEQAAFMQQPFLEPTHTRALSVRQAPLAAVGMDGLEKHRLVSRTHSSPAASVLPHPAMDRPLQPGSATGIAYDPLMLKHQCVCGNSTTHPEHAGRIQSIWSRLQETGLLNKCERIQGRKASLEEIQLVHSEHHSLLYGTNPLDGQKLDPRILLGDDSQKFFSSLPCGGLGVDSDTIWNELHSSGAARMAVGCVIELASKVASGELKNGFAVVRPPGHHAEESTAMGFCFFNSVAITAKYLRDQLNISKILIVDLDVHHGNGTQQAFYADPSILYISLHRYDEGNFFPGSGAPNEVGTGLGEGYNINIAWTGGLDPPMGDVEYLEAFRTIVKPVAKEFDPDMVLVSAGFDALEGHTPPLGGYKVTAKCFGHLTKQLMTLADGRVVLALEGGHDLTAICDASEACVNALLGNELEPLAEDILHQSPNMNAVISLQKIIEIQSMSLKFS

[4] = molecular target: Histone deacetylase 5 (Homo sapiens) (UniProt Q9UQL6); assay: Activity of HDAC5 at 10 uM
Sequence of Histone deacetylase 5 (Homo sapiens) (Q9UQL6 whole entry): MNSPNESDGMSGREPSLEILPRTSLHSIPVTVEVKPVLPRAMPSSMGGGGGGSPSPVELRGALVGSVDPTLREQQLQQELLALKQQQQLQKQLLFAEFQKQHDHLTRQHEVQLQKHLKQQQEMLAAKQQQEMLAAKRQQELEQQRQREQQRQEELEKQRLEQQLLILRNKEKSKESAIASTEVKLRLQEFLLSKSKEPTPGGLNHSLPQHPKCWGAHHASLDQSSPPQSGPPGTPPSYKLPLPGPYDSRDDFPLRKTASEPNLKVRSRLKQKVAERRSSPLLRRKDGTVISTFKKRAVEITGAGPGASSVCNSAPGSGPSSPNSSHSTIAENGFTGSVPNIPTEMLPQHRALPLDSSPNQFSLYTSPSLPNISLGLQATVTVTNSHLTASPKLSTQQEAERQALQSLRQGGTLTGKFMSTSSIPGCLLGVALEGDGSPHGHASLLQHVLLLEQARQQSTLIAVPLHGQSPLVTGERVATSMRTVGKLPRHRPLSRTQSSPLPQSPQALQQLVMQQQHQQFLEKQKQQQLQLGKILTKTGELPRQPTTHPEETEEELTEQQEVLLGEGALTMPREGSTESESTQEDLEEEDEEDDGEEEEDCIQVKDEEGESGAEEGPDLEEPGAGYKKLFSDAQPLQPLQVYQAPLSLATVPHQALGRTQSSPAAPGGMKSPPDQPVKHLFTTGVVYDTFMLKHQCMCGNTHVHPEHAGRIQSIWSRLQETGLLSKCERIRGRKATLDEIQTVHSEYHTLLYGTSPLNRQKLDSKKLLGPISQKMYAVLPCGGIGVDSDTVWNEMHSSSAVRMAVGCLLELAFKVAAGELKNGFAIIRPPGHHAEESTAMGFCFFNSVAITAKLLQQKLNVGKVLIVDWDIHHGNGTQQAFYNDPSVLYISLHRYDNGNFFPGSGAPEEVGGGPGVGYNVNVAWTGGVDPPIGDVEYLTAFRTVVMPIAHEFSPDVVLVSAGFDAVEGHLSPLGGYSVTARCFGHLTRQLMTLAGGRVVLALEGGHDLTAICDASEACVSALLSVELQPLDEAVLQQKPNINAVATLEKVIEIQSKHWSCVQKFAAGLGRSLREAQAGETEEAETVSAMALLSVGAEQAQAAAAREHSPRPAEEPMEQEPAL

[5] = molecular target: T3, Histone deacetylase 8 (Homo sapiens) (UniProt Q9BY41); assay: Activity of HDAC8 at 10 uM
T3 sequence (whole entry): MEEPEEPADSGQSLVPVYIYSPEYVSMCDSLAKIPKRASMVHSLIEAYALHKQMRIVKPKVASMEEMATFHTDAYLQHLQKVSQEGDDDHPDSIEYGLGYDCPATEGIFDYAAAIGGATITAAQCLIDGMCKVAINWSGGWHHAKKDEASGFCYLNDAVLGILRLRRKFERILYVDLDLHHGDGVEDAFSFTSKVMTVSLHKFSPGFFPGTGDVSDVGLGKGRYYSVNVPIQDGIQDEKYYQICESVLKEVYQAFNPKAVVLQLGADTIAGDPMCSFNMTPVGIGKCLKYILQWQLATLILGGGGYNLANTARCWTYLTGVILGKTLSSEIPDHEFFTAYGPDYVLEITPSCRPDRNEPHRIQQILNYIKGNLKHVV

[6] = molecular target: Histone deacetylase 4 (Homo sapiens) (UniProt P56524); assay: Activity of HDAC4 at 10 uM
Sequence of Histone deacetylase 4 (Homo sapiens) (P56524 whole entry): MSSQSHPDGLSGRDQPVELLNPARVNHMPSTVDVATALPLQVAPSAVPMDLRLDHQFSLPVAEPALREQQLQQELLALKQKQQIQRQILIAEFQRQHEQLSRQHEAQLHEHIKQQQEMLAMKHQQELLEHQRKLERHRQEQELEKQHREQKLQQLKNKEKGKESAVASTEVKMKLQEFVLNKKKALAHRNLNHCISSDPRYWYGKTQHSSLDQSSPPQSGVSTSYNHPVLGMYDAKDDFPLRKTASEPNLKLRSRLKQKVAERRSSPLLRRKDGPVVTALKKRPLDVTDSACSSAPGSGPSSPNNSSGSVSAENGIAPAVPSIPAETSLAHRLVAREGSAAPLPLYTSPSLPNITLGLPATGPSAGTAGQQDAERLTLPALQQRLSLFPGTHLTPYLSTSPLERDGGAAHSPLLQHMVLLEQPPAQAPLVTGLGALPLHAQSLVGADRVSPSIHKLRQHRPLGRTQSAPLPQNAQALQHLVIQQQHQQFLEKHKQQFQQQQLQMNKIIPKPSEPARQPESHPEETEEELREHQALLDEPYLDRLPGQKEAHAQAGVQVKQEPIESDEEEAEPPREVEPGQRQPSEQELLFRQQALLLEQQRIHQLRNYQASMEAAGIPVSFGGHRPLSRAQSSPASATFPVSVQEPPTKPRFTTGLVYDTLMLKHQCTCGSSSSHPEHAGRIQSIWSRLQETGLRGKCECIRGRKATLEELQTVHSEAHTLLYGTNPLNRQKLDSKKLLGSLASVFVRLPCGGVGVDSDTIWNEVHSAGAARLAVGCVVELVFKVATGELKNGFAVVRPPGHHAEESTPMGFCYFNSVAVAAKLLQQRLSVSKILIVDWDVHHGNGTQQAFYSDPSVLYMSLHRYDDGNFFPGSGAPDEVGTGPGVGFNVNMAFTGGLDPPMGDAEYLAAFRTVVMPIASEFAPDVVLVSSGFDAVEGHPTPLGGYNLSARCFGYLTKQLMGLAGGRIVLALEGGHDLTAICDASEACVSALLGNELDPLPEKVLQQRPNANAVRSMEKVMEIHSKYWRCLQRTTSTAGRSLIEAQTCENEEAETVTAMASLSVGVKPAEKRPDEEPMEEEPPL

Activity [2]	Activity [3]	Activity [4]	Activity [5]	Activity [6]	SMILES	inhibition [1]
					O=C(/C=C/c1ccc(C(=O)N/N=C/c2ccc(O)c(O)c2O)cc1)NO	Dose-dependent effect
Active	Active	Active	Active	Active	CC(=O)N[C@@H](CC(C)C)C(=O)NCC(=O)N[C@@H](CCCCNC(=O)C(F)(F)F)C(=O)Nc1ccc2c(C)cc(=O)oc2c1 (Ac-Leu-Gly-Lys(Tfa)-{AMC})	
